For 48 compounds, IC50 results are on record in patent publication US9790221B2, “Heteroaryl compounds as IRAK inhibitors and uses thereof” (Merck Patent GmbH, priority 2014, dated 2017).

For test [1], the target named is IRAK1 (His-TEV-IRAK1 (194-712)) (Homo sapiens (Human), UniProt P51617). The test can be described thus: IRAK1 enzymatic assay. The test is classed as biochemical. The method, then:
IRAK1 is a human purified recombinant enzyme (His-TEV-IRAK1 (194-712)). In this assay, IRAK-1 hydrolyses ATP and autophosphorylates. Measurement of IRAK-1 inhibition was performed in streptavidin coated 384well FlashPlate (PerkinElmer #SMP410A).
His-TEV-IRAK-1 (15 ng/well), ATP (1 μM, [33P]ATP 0.25 μCi/well) and compounds in DMSO (range of concentrations from 20 µM to 1 nM) or controls (2% DMSO) were incubated for 3 hours at 30° C. in assay buffer: Hepes pH7.0 50 mM, Fatty acid-free BSA 0.1%, Dithiothreitol DTT 2 mM, MgCl2 10 mM, EGTA 0.5 mM, Triton-X-100 0.01%. Kinase reaction was stopped by addition of EDTA. Supernatant was discarded, plates were washed three times with 150 mM NaCl and radioactivity was then measured in a Microbeta Trilux reader.

Another test has as its target IRAK4 (Homo sapiens (Human), UniProt Q9NWZ3). The test is described as follows: IRAK4 enzymatic assay. Format: biochemical. As for the experimental part:
IRAK4 is a human purified recombinant enzyme ([…]. IRAK4 hydrolyses ATP, autophosphorylates and phosphorylates a Serine/Threonine generic peptidic substrate (STK: 61ST1BLC from CisBio International based in Bagnols/Cèze FR).
Measurement of IRAK-4 inhibition was performed in streptavidin coated 384well FlashPlate (PerkinElmer #SMP410A). His-TEV-IRAK4 (20 ng/well), ATP (2 μM, [^33P]ATP 0.25 µCi/well), STK1-biotin peptide (300 nM) and compounds in DMSO (range of concentrations from 20 µM to 1 nM) or controls (2% DMSO) were incubated for 3 hours at 30° C. in assay buffer: Hepes pH7.0 50 mM, Fatty acid-free BSA 0.1%, Dithiothreitol DTT 2 mM, MgCl2 10 mM, EGTA 0.5 mM, Tween-20 0.01%, MnCl2 5 mM.
Kinase reaction was stopped by addition of EDTA. Supernatant was discarded, plates were washed three times with 150 mM NaCl and radioactivity was then measured in a Microbeta Trilux reader.

Chain of IRAK4 (Q9NWZ3 whole entry): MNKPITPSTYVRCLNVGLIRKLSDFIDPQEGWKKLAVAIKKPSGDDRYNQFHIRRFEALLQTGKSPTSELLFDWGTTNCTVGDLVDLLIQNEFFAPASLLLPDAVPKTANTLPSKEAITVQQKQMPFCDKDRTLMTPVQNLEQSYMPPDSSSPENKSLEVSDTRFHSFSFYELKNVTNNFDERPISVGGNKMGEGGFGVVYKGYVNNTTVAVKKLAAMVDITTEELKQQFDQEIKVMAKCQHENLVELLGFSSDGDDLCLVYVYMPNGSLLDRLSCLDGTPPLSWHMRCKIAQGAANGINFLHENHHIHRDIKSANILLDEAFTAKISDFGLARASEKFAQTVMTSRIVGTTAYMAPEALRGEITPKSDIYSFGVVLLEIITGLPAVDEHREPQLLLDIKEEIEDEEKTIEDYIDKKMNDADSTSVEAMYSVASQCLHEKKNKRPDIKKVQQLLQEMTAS
Chain of IRAK1 (His-TEV-IRAK1 (194-712)) (P51617 194-712): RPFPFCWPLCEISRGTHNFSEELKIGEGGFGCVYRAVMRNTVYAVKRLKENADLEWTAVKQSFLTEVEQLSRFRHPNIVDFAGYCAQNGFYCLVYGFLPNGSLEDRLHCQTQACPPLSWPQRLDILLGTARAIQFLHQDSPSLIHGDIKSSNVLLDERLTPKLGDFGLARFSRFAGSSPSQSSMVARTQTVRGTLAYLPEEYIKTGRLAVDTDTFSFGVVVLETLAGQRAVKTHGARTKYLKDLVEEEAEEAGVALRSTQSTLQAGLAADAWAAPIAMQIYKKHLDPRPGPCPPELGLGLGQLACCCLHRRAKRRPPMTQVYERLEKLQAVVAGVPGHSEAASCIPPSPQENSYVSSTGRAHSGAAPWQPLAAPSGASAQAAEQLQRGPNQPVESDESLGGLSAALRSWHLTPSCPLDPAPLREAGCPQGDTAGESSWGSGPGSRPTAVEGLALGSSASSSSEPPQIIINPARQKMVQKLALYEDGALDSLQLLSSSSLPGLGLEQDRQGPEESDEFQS

In the case of `Cn1cc(-c2cccc(-c3ncc(-c4ccn(C)n4)c(NCCCN4CCOC4=O)n3)c2)cn1` [Example 67], the IC50 (commonly the concentration that inhibits the measured activity by half) in test [1] was over 5000 nM; against IRAK4 it was 100 to 1000 nM.

With `Cn1cc(-c2cccc(-c3ncc(-c4ccn(C)n4)c(NCCCO)n3)c2)cn1` [Example 68], the IC50 in test [1] was 1000 to 5000 nM; against IRAK4, 100 to 1000 nM.

As to `Cn1cc(-c2cccc(-c3ncc(-c4ccn(C)n4)c(NCCN4CCOCC4)n3)c2)cn1` [Example 69], the IC50 was over 5000 nM in test [1] and 100 to 1000 nM on IRAK4.

As for `Cn1cc(-c2cccc(-c3ncc(-c4ccn(C)n4)c(NCCN4CCCC4=O)n3)c2)cn1` [Example 70], the IC50 in test [1] lay in the range of 100 to 1000 nM; at IRAK4 it was 1000 to 5000 nM.

Regarding `Cn1cc(-c2cccc(-c3ncc(-c4ccn(C)n4)c(NCC4(C)CCC4)n3)c2)cn1` [Example 71], the IC50 (in test [1]; on IRAK4) was over 5000 nM in each case.

Regarding `Cn1cc(-c2cccc(-c3ncc(-c4ccn(C)n4)c(NCCCN4CCCC4=O)n3)c2)cn1` [Example 72], the 50% inhibitory concentration (IC50) in test [1] was over 5000 nM; on IRAK4, 1000 to 5000 nM.

Take `CC(=O)NCCNc1nc(-c2cccc(-c3cnn(C)c3)c2)ncc1-c1ccn(C)n1` [Example 73]: the IC50 (in test [1]; against IRAK4) was 1000 to 5000 nM each time.

Regarding `Cn1cc(-c2cccc(-c3ncc(-c4ccn(C)n4)c(NCC4CCNC(=O)C4)n3)c2)cn1` (stereo not drawn) [Example 74], the IC50 in test [1] is 1000 to 5000 nM; on IRAK4, 100 to 1000 nM.

As for `Cn1cc(-c2cccc(-c3ncc(-c4ccn(C)n4)c(NCCCN4CCOCC4)n3)c2)cn1` [Example 75], the IC50 (in test [1]; against IRAK4) was over 5000 nM throughout.

Take `Cn1cc(-c2cccc(-c3ncc(-c4cnn(C)c4)c(NCCCN4CCOC4=O)n3)c2)cn1` [Example 78]: the IC50 fell in the range of 1000 to 5000 nM in test [1] and 100 to 1000 nM against IRAK4.

Regarding `Cn1cc(-c2cccc(-c3ncc(-c4ccn(C)n4)c(N[C@H]4C[C@@H](S(C)(=O)=O)C4)n3)c2)cn1` [Example 79], the IC50 (in test [1]; on IRAK4) was 100 to 1000 nM each time.

On to `Cn1cc(-c2cccc(-c3ncc(-c4ccn(C)n4)c(NC4CC(F)C4)n3)c2)cn1` (stereo not drawn) [Example 80], for which the IC50 is over 5000 nM in test [1] and 100 to 1000 nM against IRAK4.

With `Cn1cc(-c2cccc(-c3ncc(-c4ccn(C)n4)c(NC4CC(O)C4)n3)c2)cn1` (stereo not drawn) [Example 82], the 50% inhibitory concentration (IC50) in test [1] is 1000 to 5000 nM; on IRAK4, 100 to 1000 nM.

As to `Cn1cc(-c2cccc(-c3ncc(-c4cnn(C)c4)c(NCCCCN)n3)c2)cn1` [Example 88], the IC50 is over 5000 nM in test [1] and 100 to 1000 nM against IRAK4.

Consider `Cn1cc(-c2cccc(-c3ncc(-c4cnn(C)c4)c(NCCCN)n3)c2)cn1` [Example 89], for which the IC50 in test [1] was over 5000 nM; at IRAK4, 1000 to 5000 nM.

As to `Cn1cc(-c2cccc(-c3ncc(-c4ccn(C)n4)c(NC4CC(F)(F)C4)n3)c2)cn1` [Example 90], the IC50 (in test [1]; on IRAK4) was over 5000 nM throughout.

On to `Cn1cc(-c2cccc(-c3ncc(-c4ccn(C)n4)c(NCCN4CCOC4=O)n3)c2)cn1` [Example 91], for which the half-inhibitory concentration (IC50) (in test [1]; at IRAK4) was over 5000 nM throughout.

For `Cn1cc(-c2cccc(-c3ncc(-c4cnn(C)c4)c(NC4(CO)COC4)n3)c2)cn1` [Example 92], the IC50 (in test [1]; against IRAK4) was over 5000 nM each time.

On to `Cn1cc(-c2cccc(-c3ncc(-c4cnn(C)c4)c(NCCO)n3)c2)cn1` [Example 96], for which the IC50 is 1000 to 5000 nM in test [1] and under 100 nM at IRAK4.

Consider `Cn1cc(-c2cccc(-c3ncc(-c4ccn(C)n4)c(NC4CC5(CC(N)C5)C4)n3)c2)cn1` (stereo not drawn) [Example 98], for which the half-maximal inhibitory concentration (IC50) was 1000 to 5000 nM in test [1] and 100 to 1000 nM on IRAK4.

On to `Cn1cc(-c2cccc(-c3ncc(-c4ccn(C)n4)c(NCCO)n3)c2)cn1` [Example 100], for which the 50% inhibitory concentration (IC50) in test [1] lay within 1000 to 5000 nM; on IRAK4, 100 to 1000 nM.

On to `Cn1cc(-c2cccc(-c3ncc(-c4ccn(C)n4)c(NC4CCC(=O)NC4)n3)c2)cn1` (stereo not drawn) [Example 102], for which the IC50 in test [1] is 1000 to 5000 nM; against IRAK4, 100 to 1000 nM.

As for `Cn1cc(-c2cccc(-c3ncc(-c4cnn(C)c4)c(NC4CCC(=O)NC4)n3)c2)cn1` (stereo not drawn) [Example 103], the IC50 in test [1] is 1000 to 5000 nM; on IRAK4, under 100 nM.

On to `Cn1cc(-c2cccc(-c3ncc(-c4ccn(C)n4)c(NC[C@H]4CCNC4)n3)c2)cn1` [Example 104], for which the IC50 was in the range of 1000 to 5000 nM in test [1] and 100 to 1000 nM against IRAK4.

As to `CN1CCOC(CNc2nc(-c3cccc(-c4cnn(C)c4)c3)ncc2-c2cnn(C)c2)C1` (stereo not drawn) [Example 105], the IC50 in test [1] is over 5000 nM; on IRAK4, 100 to 1000 nM.

As to `Cn1cc(-c2cccc(-c3ncc(-c4nnc(C(=O)N5CC[C@@H](O)C5)s4)c(NCC4CNC4)n3)c2)cn1` [Example 106], the IC50 in test [1] is over 5000 nM; at IRAK4, under 100 nM.

Consider `CC(=O)NCCCNc1nc(-c2cccc(-c3cnn(C)c3)c2)ncc1-c1cnn(C)c1` [Example 109], for which the figures for the IC50 (in test [1]; against IRAK4) were over 5000 nM and 100 to 1000 nM, respectively.

Take `Cn1cc(-c2cccc(-c3ncc(-c4cnn(C)c4)c(NCCN4CCC(O)CC4)n3)c2)cn1` [Example 110]: the IC50 in test [1] was over 5000 nM; on IRAK4, 1000 to 5000 nM.

As for `Cn1cc(-c2cccc(-c3ncc(-c4ccn(C)n4)c(N[C@H]4CC[C@@H](N)CC4)n3)c2)cn1` [Example 111], the IC50 was 100 to 1000 nM in test [1] and under 100 nM against IRAK4.

As for `Cn1cc(-c2cccc(-c3ncc(-c4ccn(C)n4)c(NCC4(O)CCNCC4(C)C)n3)c2)cn1` (stereo not drawn) [Example 114], the figures for the IC50 (in test [1]; on IRAK4) were 1000 to 5000 nM and 100 to 1000 nM, respectively.

In the case of `Cn1cc(-c2cccc(-c3ncc(-c4ccn(C)n4)c(N[C@H]4CCNC4)n3)c2)cn1` [Example 117], the values for the IC50 (in test [1]; at IRAK4) were over 5000 nM and 100 to 1000 nM, respectively.

For the compound `Cn1cc(-c2cccc(-c3ncc(-c4ccn(C)n4)c(NC[C@H](O)CO)n3)c2)cn1` [Example 120], the IC50 (in test [1]; against IRAK4) was 100 to 1000 nM in each case.

With `Cn1cc(-c2cccc(-c3ncc(-c4cnn(C)c4)c(N[C@H]4CCNC4)n3)c2)cn1` [Example 121], the results for the IC50 (in test [1]; against IRAK4) were over 5000 nM and 100 to 1000 nM, respectively.

Regarding `Cn1cc(-c2cccc(-c3ncc(-c4ccn(C)n4)c(NCC4CCCC(O)C4)n3)c2)cn1` (stereo not drawn) [Example 122], the half-maximal inhibitory concentration (IC50) in test [1] was over 5000 nM; against IRAK4, 100 to 1000 nM.

As for `Cn1cc(-c2cccc(-c3ncc(-c4ccn(C)n4)c(N[C@H]4C[C@@H](N)C4)n3)c2)cn1` [Example 124], the IC50 in test [1] is over 5000 nM; against IRAK4 it was 100 to 1000 nM.

As to `Cn1cc(-c2cccc(-c3ncc(-c4cnn(C)c4)c(N[C@@H]4CNC[C@@H](F)C4)n3)c2)cn1` [Example 130], the IC50 is 1000 to 5000 nM in test [1] and 100 to 1000 nM against IRAK4.

For the compound `Cn1cc(-c2cccc(-c3ncc(-c4cnn(C)c4)c(NCCCC(C)(C)O)n3)c2)cn1` [Example 139], the IC50 (in test [1]; at IRAK4) was 100 to 1000 nM throughout.

In the case of `Cn1cc(-c2cccc(-c3ncc(-c4ccn(C)n4)c(NCCCC(C)(C)O)n3)c2)cn1` [Example 140], the IC50 in test [1] was in the range of 1000 to 5000 nM; at IRAK4 it was 100 to 1000 nM.

In the case of `CN(CC1CC(F)(F)C1)c1nc(-c2cccc(-c3cnn(C)c3)c2)ncc1-c1ccn(C)n1` [Example 142], the IC50 is over 5000 nM in test [1] and 1000 to 5000 nM on IRAK4.

As to `Cn1cc(-c2cccc(-c3ncc(-c4ccn(C)n4)c(NCC4CCNC4)n3)c2)cn1` (stereo not drawn) [Example 144], the IC50 is over 5000 nM in test [1] and 100 to 1000 nM against IRAK4.

With `Cn1cc(-c2cccc(-c3ncc(-c4cnn(C)c4)c(NCC4CCNC4)n3)c2)cn1` (stereo not drawn) [Example 145], the values for the IC50 (in test [1]; at IRAK4) were over 5000 nM and 100 to 1000 nM, respectively.

Consider `Cn1cc(-c2cccc(-c3ncc(-c4ccn(C)n4)c(N[C@H]4CC[C@H](O)CC4)n3)c2)cn1` [Example 147], for which the figures for the IC50 (in test [1]; against IRAK4) were over 5000 nM and under 100 nM, respectively.

Regarding `Cn1cc(-c2cccc(-c3ncc(-c4cnn(C)c4)c(N4CCNCC4)n3)c2)cn1` [Example 148], the IC50 in test [1] is over 5000 nM; at IRAK4 it was 100 to 1000 nM.

Turning to `Cn1cc(-c2cccc(-c3ncc(-c4cnn(C)c4)c(NC4CCC5CNCC54)n3)c2)cn1` (stereo not drawn) [Example 150], the results for the IC50 (in test [1]; at IRAK4) were over 5000 nM and 100 to 1000 nM, respectively.

Take `Cn1cc(-c2cccc(-c3ncc(-c4ccn(C)n4)c(NC4CCC5CNCC54)n3)c2)cn1` (stereo not drawn) [Example 154]: the values for the half-inhibitory concentration (IC50) (in test [1]; on IRAK4) were over 5000 nM and 100 to 1000 nM, respectively.

In the case of `Cn1cc(-c2cccc(-c3ncc(-c4cnn(C)c4)c(NC[C@H]4CC[C@@H](O)CC4)n3)c2)cn1` [Example 155], the values for the IC50 (in test [1]; on IRAK4) were over 5000 nM and under 100 nM, respectively.

As for `Cn1cc(-c2cccc(-c3ncc(-c4cnn(C)c4)c(NCC4CC4)n3)c2)cn1` [Example 157], the IC50 in test [1] is 100 to 1000 nM; on IRAK4, under 100 nM.

Consider `Cn1cc(-c2cccc(-c3ncc(-c4cnn(C)c4)c(NCC4CCN(S(C)(=O)=O)C4)n3)c2)cn1` (stereo not drawn) [Example 158], for which the IC50 in test [1] was 100 to 1000 nM; at IRAK4, under 100 nM.
